The record followed here is patent US20150164884A1, “HCV COMBINATION THERAPY” (Boehringer Ingelheim International GmbH, priority 2009, published 2015).

≈ marks a conversion by molar mass, not a printed value. Where a name gives a salt, the structure may show the parent alone. Read-outs that look alike come from different tables or passages of the source. Some results are limits rather than exact numbers.

Broadly, the Solubility is the concentration that dissolves in the medium under given conditions.

A short description of data set [1]: Solubility of Compound (1) forms in non-aqueous excipients (HPLC of filtrate). The data set is classed as physicochemical. The following applies: room temperature, up to 4 days. How it is done: (§1) The solubility of Compound (1), as either Type A or the sodium salt form, was investigated in various non-aqueous solvents. The solutions were prepared by addition of excess Compound (1) to 0.25 ml to 1.0 ml of excipient in amber screw cap vials with Teflon lined caps. The samples were allowed to rotate at room temperature for up to 4 days. Sampling was done by centrifuging (14,000 rpm on the Eppendorf model 5415C table top centrifuge) and filtering through a 0.45 μm PVDF filter. The filtrate was subject to HPLC analysis for determining the solubility. HPLC analysis was conducted with an to Agilent 1100 using gradient or isocratic conditions. Both methods used acetonitrile/water (each with 0.1% Triflouroacetic Acid) and an ACE C-18 stationary phase with column heating maintained at 40-45° C. The wavelength of detection was set at 220 nm or 264 nm Wet solids were collected and analyzed for form change (stability) by XRPD.

A short description of data set [2]: Form change (stability) study of slurried solids by XRPD. The data set is classed as physicochemical. The following applies: slurried in either ethanol or propylene glycol. How it is done:
as §1
XRPD analyses for the form change studies were conducted on a Bruker AXS X-Ray Powder Diffractometer Model D8 Discover or D8 Advance, available from Bruker AXS, Inc. of Madison, Wis., using CuKα radiation. The tube power was set to either 40 kV and 40 mA or 40 kV and 30 mA. […]

In the case of `C=C[C@@H]1C[C@]1(NC(=O)[C@@H]1C[C@H](Oc2cc(-c3csc(NC(=O)C(C)C)n3)nc3c(Br)c(OC)ccc23)CN1C(=O)[C@@H](NC(=O)OC1CCCC1)C(C)(C)C)C(=O)O` [Compound (1) Na salt], the Solubility in data set [1] (Capmul MCM (non-aqueous excipient), oil or lipid, thermodynamic from solid, excipient Capmul MCM, read-out: Solubility) was 262.5 ± 2.6 mg/mL; in data set [1] (Capmul PG8 (non-aqueous excipient), oil or lipid, thermodynamic from solid, excipient Capmul PG8, read-out: Solubility), less than 169 mg/mL; in data set [1] (Labrasol (non-aqueous excipient), oil or lipid, thermodynamic from solid, excipient Labrasol, read-out: Solubility) it was 175 ± 11.8 mg/mL; in data set [1] (PEG 400 (non-aqueous excipient), organic solvent or mixture, thermodynamic from solid, excipient PEG 400, read-out: Solubility), 234 ± 34 mg/mL; in data set [1] (excipient Ethanol) it was 187.0 ± 23.9 mg/mL; in data set [1] (excipient Transcutol P), 430.6 ± 14.7 mg/mL. Also, the Solubility in data set [1] (propylene glycol (non-aqueous excipient), organic solvent or mixture, thermodynamic from solid, excipient Propylene Glycol, read-out: Solubility) is greater than 468 mg/mL. Also, in data set [2] (listed as crystalline sodium salt form of Compound (1)), the “Form stability (change in XRPD pattern of remaining solid phase)” value is recorded as “no change in the XRPD pattern”.

Turning to `C=C[C@@H]1C[C@]1(NC(=O)[C@@H]1C[C@H](Oc2cc(-c3csc(NC(=O)C(C)C)n3)nc3c(Br)c(OC)ccc23)CN1C(=O)[C@@H](NC(=O)OC1CCCC1)C(C)(C)C)C(=O)O` [Type A of Compound (1)], the Solubility in data set [1] (excipient Capmul MCM) was 220.6 ± 7.4 mg/mL (≈ 254 mM); in data set [1] (excipient Capmul PG8) it was 172.6 ± 8.3 mg/mL (≈ 198 mM); in data set [1] (excipient Ethanol) it was 0.9 ± 0.1 mg/mL (≈ 1.03 mM); in data set [1] (excipient Labrasol), 146.7 ± 5.1 mg/mL (≈ 169 mM); in data set [1] (excipient PEG 400), 136.8 ± 3.2 mg/mL (≈ 157 mM); in data set [1] (excipient Transcutol P) it was 24.3 ± 0.3 mg/mL (≈ 27.9 mM). Further, in data set [2] (listed as Type A form of Compound (1)), the “Form stability (change in XRPD pattern of remaining solid phase)” value was “clear form change”.
